Data taken from paper PMC4501006, “Preliminary Characterization and In Vivo Studies of Structurally Identical ^18F- and ^125I-Labeled Benzyloxybenzenes for PET/SPECT Imaging of β-Amyloid Plaques” (Scientific Reports, 2015).

How the values were obtained:
[1] = Dynamic microPET/CT imaging in normal ICR mice; type: in vivo; settings: for brain radioactivity retention from PET time-activity curve: at 60 min; for muscle and bone uptake, standardized uptake value (SUV): entire 60 min PET scan
Protocol: To further assess the pharmacokinetics of these two couple of radiolabeled benzyloxybenzenes, following dynamic PET/CT and SPECT/CT scans were conducted in normal ICR mice. High contrast PET and SPECT images implied that all the four radiolabeled benzyloxybenzenes can penetrate the BBB to a great degree and washout from the normal brain regions (Fig. 7a). […] Sustained low muscle and bone uptakes were observed during the entire 60 min scans with standardized uptake values (SUV) of approximate 0.7. […] These PET imaging data well matched the in vivo biodistribution results.
Four normal ICR mice (20–22 g, male) were used for dynamic microPET/CT and microSPECT/CT imaging. The whole-body PET/CT scans were performed using Siemens Inveon device (Siemens Medical Solutions), while SPECT/CT scans were conducted with Mediso nanoScan SPECT/CT scanner (Mediso Medical Imaging System). All mice were anesthetized with 2% isoflurane. Dynamic PET and SPECT scans from 0 to 60 min were started immediately after intravenous injection of [^18F]7a (injected dose, 2.2 MBq), [^18F]12a (injected dose, 4.1 MBq), [^125I]7a (injected dose, 25 MBq), and [^125I]12a (injected dose, 48 MBq), respectively. PET images were reconstructed using three-dimensional ordered subsets expectation maximization (3D OSEM) algorithm, and 3D iterative algorithm was used for SPECT image reconstruction. Time frames for PET imaging were 20 × 60 s and 10 × 240 s, and that for SPECT imaging were 20 × 180 s. Regions of interests (ROIs) were manually drawn on the whole brain, heart, liver, muscle and bone using the CT templates and then transferred to corresponding coregistered PET images. SUVs, injected dose and body weight normalized and decay corrected radioactivity concentration, were calculated for all ROIs. TACs were calculated from this.

Aβ plaques = Aβ plaques (Homo sapiens, UniProt P05067); experiment: Ex vivo autoradiography and brain radioactivity retention, Tg versus wild-type mouse; type: in vivo, Tg mouse (APPswe/PSEN1); settings: 30 min post-injection
Protocol: To further characterize the in vivo Aβ imaging capabilities, we conducted ex vivo autoradiographic studies with [^125I]7a which combined high binding affinity, high initial brain uptake, fast clearance and excellent in vivo biostability in the brain. [^125I]7a (1 mCi, 200 μL) was injected intravenously into a Tg mouse (APPswe/PSEN1, male, 27 months old) and an age-matched wild-type mouse (C57BL6, male). Thirty minutes after injection, the brains were removed, weighed and the radioactivity was counted. Then the brains were frozen and sectioned for ex vivo autoradiography. […] Ex vivo autoradiography was performed on a transgenic mouse (APPswe/PSEN1, male, 27 months old) and a wild-type mouse (C57BL6, male, 27 months old). A saline solution (200 μL, 10% EtOH) of 1 mCi of [^125I]7a was injected into the mice via the tail vein. The mice were sacrificed by decapitation at 30 min post-injection, and the brains were immediately removed, weighed and the radioactivity was counted. Frozen brain sections of 20 μm were cut and exposed to a phosphorus plate (Perkin-Elmer, USA) for one week. Ex vivo autoradiographic images were obtained using a phosphor imaging system (Cyclone, Packard). Subsequently the same sections were stained with ThS to confirm the presence and location of Aβ plaques.

Chain of Aβ plaques (P05067 672-711 limits assumed): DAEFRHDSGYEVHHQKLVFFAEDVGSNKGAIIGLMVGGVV

Row | SMILES | brain uptake from PET time-activity curve ([1]; at 8 min) [% ID/g] | brain radioactivity retention from PET time-activity curve [1] [% ID/g] | muscle and bone uptake, standardized uptake value (SUV) [1] | brain uptake from PET time-activity curve ([1]; at 7 min) [% ID/g] | higher brain radioactivity retention in Tg mouse than in wild-type control mouse (Aβ plaques; i.v., 1 mCi) [%] | ex vivo autoradiography, labeling of Aβ plaques (Aβ plaques; Tg mouse brain sections)
1 | [18F]CCOc1ccc(OCc2ccc(I)cc2)cc1 [[^18F]7a] | 5.96 | 3.08 | ~0.7 |  |  | 
2 | [18F]CCOc1ccc(COc2ccc(I)cc2)cc1 [[^18F]12a] |  | 3.47 | ~0.7 | 6.74 |  | 
3 | FCCOc1ccc(OCc2ccc([125I])cc2)cc1 [[^125I]7a] |  |  |  |  | 40 | clear labeling of Aβ plaques in the Tg mouse brain
